Each structure is given as a SMILES string.

This assay addresses T1, HDAC6 enzyme (Homo sapiens, UniProt Q9UBN7).
T1 construct: transducing full length HDAC6 gene into Sf-9 insect cells; GST; purchased SignalChem; host or cells: Sf-9 insect cells
T1 sequence (Q9UBN7 1-1215): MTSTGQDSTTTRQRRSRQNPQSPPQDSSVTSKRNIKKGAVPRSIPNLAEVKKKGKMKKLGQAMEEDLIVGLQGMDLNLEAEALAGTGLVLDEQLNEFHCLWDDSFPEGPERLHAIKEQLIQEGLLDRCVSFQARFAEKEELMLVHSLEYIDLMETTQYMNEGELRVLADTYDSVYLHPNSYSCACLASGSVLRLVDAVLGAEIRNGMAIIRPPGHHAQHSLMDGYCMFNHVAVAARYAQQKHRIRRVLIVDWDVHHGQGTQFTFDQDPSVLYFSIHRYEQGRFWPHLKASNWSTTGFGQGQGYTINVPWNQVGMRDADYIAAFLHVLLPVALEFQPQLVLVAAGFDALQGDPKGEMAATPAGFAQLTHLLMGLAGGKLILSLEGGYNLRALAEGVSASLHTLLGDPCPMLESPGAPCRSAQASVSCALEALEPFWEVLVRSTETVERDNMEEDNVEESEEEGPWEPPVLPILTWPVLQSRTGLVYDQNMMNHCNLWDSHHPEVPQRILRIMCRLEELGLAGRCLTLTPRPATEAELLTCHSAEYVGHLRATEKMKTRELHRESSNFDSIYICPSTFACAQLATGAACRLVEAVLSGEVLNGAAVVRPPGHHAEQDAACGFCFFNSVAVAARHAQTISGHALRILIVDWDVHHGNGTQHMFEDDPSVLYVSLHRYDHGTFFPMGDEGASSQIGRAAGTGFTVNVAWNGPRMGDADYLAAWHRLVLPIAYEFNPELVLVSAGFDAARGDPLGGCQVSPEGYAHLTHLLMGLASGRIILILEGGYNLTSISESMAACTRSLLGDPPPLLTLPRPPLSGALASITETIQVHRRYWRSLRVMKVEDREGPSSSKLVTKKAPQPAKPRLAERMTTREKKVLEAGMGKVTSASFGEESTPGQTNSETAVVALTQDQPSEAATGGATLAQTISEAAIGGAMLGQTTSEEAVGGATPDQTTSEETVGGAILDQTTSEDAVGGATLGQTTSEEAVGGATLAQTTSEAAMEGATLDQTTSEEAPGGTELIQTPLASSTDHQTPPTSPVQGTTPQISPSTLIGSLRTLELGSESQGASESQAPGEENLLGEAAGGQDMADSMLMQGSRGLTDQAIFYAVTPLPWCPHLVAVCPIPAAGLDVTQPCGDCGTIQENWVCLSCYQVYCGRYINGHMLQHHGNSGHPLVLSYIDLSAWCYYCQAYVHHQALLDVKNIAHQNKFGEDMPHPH
Put plainly: HDAC6 enzyme inhibitory activity (HDAC-Glo I/II Assay kit). It counts as biochemical. As to conditions: 10 μM; wells without enzyme = 100% inhibition; read-out: HDAC6 inhibitory rate (%) (10 μM). An outline of the steps: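 Inhibition is calculated as relative activity, taking luminescence in enzyme-free wells as complete inhibition. The enzyme, full-length and GST-purified after Sf-9 expression, was exposed to compound for 60 min at room temperature before a 20 min HDAC-Glo reaction.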
Regarding `O=C1CCCCN1[C@@H]1CCCC[C@H]1N1Cc2ccc(-c3nnc(C(F)F)o3)cc2C1=O` [Example 20, 6-(5-(difluoromethyl)-1,3,4-oxadiazol-2-yl)-2-((1R,2R)-2-(2-oxopiperidin-1-yl)cyclohexyl)isoindolin-1-one], the inhibition at 10 µM is 100%.

With `O=C1OCCCN1[C@@H]1CCCC[C@H]1N1Cc2ccc(-c3nnc(C(F)F)o3)cc2C1=O` [Example 21, 6-(5-(difluoromethyl)-1,3,4-oxadiazol-2-yl)-2-((1R,2R)-2-(2-oxo-1,3-oxazinan-3-yl)cyclohexyl)isoindolin-1-one], the inhibition at 10 µM was found to be 100%. Next, `O=C1OCCN1[C@@H]1CCCC[C@H]1N1Cc2ccc(-c3nnc(C(F)F)o3)cc2C1=O` [Example 22, 6-(5-(difluoromethyl)-1,3,4-oxadiazol-2-yl)-2-((1R,2R)-2-(2-oxo-1,3-oxazolidin-3-yl)cyclohexyl)isoindolin-1-one]: 98%; `O=C1c2cc(-c3nnc(C(F)F)o3)ccc2CN1[C@@H]1CCCC[C@H]1NC(=O)C1(C(F)F)CC1` [Example 23, 1-(difluoromethyl)-N-((1R,2R)-2-(6-(5-(difluoromethyl)-1,3,4-oxadiazol-2-yl)-1-oxo-1,3-dihydro-2H-isoindol-2-yl)cyclohexyl)cyclopropanecarboxamide]: 99%. Consider `O=C1c2cc(-c3nnc(C(F)F)o3)ccc2CN1[C@@H]1CCCC[C@H]1NC(=O)C1(C(F)(F)F)CCC1` [Example 24, N-((1R,2R)-2-(6-(5-(difluoromethyl)-1,3,4-oxadiazol-2-yl)-1-oxo-1,3-dihydro-2H-isoindol-2-yl)cyclohexyl)-1-(trifluoromethyl)cyclobutanecarboxamide], for which the inhibition at 10 µM amounted to 98%.

As to `COC1(C(=O)N[C@@H]2CCCC[C@H]2N2Cc3ccc(-c4nnc(C(F)F)o4)cc3C2=O)CCC1` [Example 25, N-((1R,2R)-2-(6-(5-(difluoromethyl)-1,3,4-oxadiazol-2-yl)-1-oxo-1,3-dihydro-2H-isoindol-2-yl)cyclohexyl)-1-methoxycyclobutanecarboxamide], the inhibition at 10 µM was found to be 99%.

On to `O=C(CC1(O)CCCC1)N[C@@H]1CCCC[C@H]1N1Cc2ccc(-c3nnc(C(F)F)o3)cc2C1=O` [Example 26, N-((1R,2R)-2-(6-(5-(difluoromethyl)-1,3,4-oxadiazol-2-yl)-1-oxo-1,3-dihydro-2H-isoindol-2-yl)cyclohexyl)-2-(1-hydroxycyclopentyl)acetamide], for which the inhibition at 10 µM was determined as 98%. For `O=C(N[C@@H]1CCCC[C@H]1N1Cc2ccc(-c3nnc(C(F)F)o3)cc2C1=O)c1cocn1` [Example 27, N-((1R,2R)-2-(6-(5-(difluoromethyl)-1,3,4-oxadiazol-2-yl)-1-oxo-1,3-dihydro-2H-isoindol-2-yl)cyclohexyl)-1,3-oxazole-4-carboxamide] the value was 100%. On to `O=C(N[C@@H]1CCCC[C@H]1N1Cc2ccc(-c3nnc(C(F)F)o3)cc2C1=O)C(F)F` [Example 28, N-((1R,2R)-2-(6-(5-(difluoromethyl)-1,3,4-oxadiazol-2-yl)-1-oxo-1,3-dihydro-2H-isoindol-2-yl)cyclohexyl)-2,2-difluoroacetamide], for which the inhibition at 10 µM is 100%. Next, `O=C1c2cc(-c3nnc(C(F)F)o3)ccc2CN1[C@@H]1CCCC[C@H]1NC(=O)C(F)(F)C(F)(F)F` [Example 29, N-((1R,2R)-2-(6-(5-(difluoromethyl)-1,3,4-oxadiazol-2-yl)-1-oxo-1,3-dihydro-2H-isoindol-2-yl)cyclohexyl)-2,2,3,3,3-pentafluoropropanamide]: 101%.

Take `O=C1COCCN1[C@@H]1CCCC[C@H]1N1Cc2ccc(-c3nnc(C(F)F)o3)cc2C1=O` [Example 30, 6-(5-(difluoromethyl)-1,3,4-oxadiazol-2-yl)-2-((1R,2R)-2-(3-oxomorpholin-4-yl)cyclohexyl) isoindolin-1-one]: the inhibition at 10 µM was found to be 97%.

`O=C1NCCCN1[C@@H]1CCCC[C@H]1N1Cc2ccc(-c3nnc(C(F)F)o3)cc2C1=O` [Example 31, 6-(5-(difluoromethyl)-1,3,4-oxadiazol-2-yl)-2-((1R,2R)-2-(2-oxotetrahydropyrimidin-1(2H)-yl)cyclohexyl) isoindolin-1-one]: the inhibition at 10 µM was 97%. For `O=C1c2cc(-c3nnc(C(F)F)o3)ccc2CN1[C@@H]1CCCC[C@H]1NC(=O)C1(C(F)(F)F)CC1` [Example 32, N-((1R,2R)-2-(6-(5-(difluoromethyl)-1,3,4-oxadiazol-2-yl)-1-oxo-1,3-dihydro-2H-isoindol-2-yl)cyclohexyl)-1-(trifluoromethyl)cyclopropanecarboxamide] the value was 101%; for `O=C(N[C@@H]1CCCC[C@H]1N1Cc2ccc(-c3nnc(C(F)F)o3)cc2C1=O)C1CC(F)(F)C1` [Example 33, N-((1R,2R)-2-(6-(5-(difluoromethyl)-1,3,4-oxadiazol-2-yl)-1-oxo-1,3-dihydro-2H-isoindol-2-yl)cyclohexyl)-3,3-difluorocyclobutanecarboxamide], 97%; for `CC(C)(C)OC(=O)N1CCCC[C@@H]1CN1Cc2ccc(-c3nnc(C(F)F)o3)cc2C1=O` [Example 34, tert-butyl (2R)-2-((6-(5-(difluoromethyl)-1,3,4-oxadiazol-2-yl)-1-oxo-1,3-dihydro-2H-isoindol-2-yl)methyl)piperidine-1-carboxylate], 98%. Take `CC(C)(C)OC(=O)N1CCOC[C@@H]1CN1Cc2ccc(-c3nnc(C(F)F)o3)cc2C1=O` [Example 35, tert-butyl (3S)-3-((6-(5-(difluoromethyl)-1,3,4-oxadiazol-2-yl)-1-oxo-1,3-dihydro-2H-isoindol-2-yl)methyl)morpholine-4-carboxylate]: the inhibition at 10 µM turned out to be 97%. As for `O=C1c2cc(-c3nnc(C(F)F)o3)ccc2CN1C[C@H]1COCCN1` [Example 36, 6-(5-(difluoromethyl)-1,3,4-oxadiazol-2-yl)-2-((3S)-morpholin-3-ylmethyl)isoindolin-1-one], the inhibition at 10 µM turned out to be 85%. Turning to `O=C1CCCN1c1ccccc1N1Cc2ccc(-c3nnc(C(F)F)o3)cc2C1=O` [Example 37, 6-(5-(difluoromethyl)-1,3,4-oxadiazol-2-yl)-2-(2-(2-oxopyrrolidin-1-yl)phenyl)isoindolin-1-one], the inhibition at 10 µM stood at 99%. Next, `N[C@@H]1CCCC[C@H]1N1Cc2ccc(-c3nnc(C(F)F)o3)cc2C1=O` [Example 38, 2-((1R,2R)-2-aminocyclohexyl)-6-(5-(difluoromethyl)-1,3,4-oxadiazol-2-yl)isoindolin-1-one]: 91%. Next, `CCCCC(=O)N[C@@H]1CCCC[C@H]1N1Cc2ccc(-c3nnc(C(F)F)o3)cc2C1=O` [Example 39, N-((1R,2R)-2-(6-(5-(difluoromethyl)-1,3,4-oxadiazol-2-yl)-1-oxo-1,3-dihydro-2H-isoindol-2-yl)cyclohexyl)pentanamide]: 96%; `CC(F)(F)C(=O)N[C@@H]1CCCC[C@H]1N1Cc2ccc(-c3nnc(C(F)F)o3)cc2C1=O` [Example 40, N-((1R,2R)-2-(6-(5-(difluoromethyl)-1,3,4-oxadiazol-2-yl)-1-oxo-1,3-dihydro-2H-isoindol-2-yl)cyclohexyl)-2,2-difluoropropanamide]: 100%.

The values are drawn from patent US10435399B2, “HDAC6 inhibitory heterocyclic compound” (TAKEDA PHARMACEUTICAL COMPANY LIMITED, priority 2017, dated 2019).
